A word on the Ki: it is the equilibrium dissociation constant of an inhibitor or competing ligand from its target. One may read the Km as the concentration of substrate that gives half-maximal velocity. Usually kcat stands for the maximal rate divided by the concentration of active sites.

The results in this text go back to paper PMC8125234, “Cardiolipin Stabilizes and Increases Catalytic Efficiency of Carnitine Palmitoyltransferase II and Its Variants S113L, P50H, and Y479F” (International Journal of Molecular Sciences, 2021).

Format in all cases: biochemical
In experiment [1] the target is T1, CPT II variant P50H (Homo sapiens, UniProt P23786, P50H).
T1 construct: made in house; host or cells: Escherichia coli BL21Gold DE
T1 sequence (P23786 26-658 P50H): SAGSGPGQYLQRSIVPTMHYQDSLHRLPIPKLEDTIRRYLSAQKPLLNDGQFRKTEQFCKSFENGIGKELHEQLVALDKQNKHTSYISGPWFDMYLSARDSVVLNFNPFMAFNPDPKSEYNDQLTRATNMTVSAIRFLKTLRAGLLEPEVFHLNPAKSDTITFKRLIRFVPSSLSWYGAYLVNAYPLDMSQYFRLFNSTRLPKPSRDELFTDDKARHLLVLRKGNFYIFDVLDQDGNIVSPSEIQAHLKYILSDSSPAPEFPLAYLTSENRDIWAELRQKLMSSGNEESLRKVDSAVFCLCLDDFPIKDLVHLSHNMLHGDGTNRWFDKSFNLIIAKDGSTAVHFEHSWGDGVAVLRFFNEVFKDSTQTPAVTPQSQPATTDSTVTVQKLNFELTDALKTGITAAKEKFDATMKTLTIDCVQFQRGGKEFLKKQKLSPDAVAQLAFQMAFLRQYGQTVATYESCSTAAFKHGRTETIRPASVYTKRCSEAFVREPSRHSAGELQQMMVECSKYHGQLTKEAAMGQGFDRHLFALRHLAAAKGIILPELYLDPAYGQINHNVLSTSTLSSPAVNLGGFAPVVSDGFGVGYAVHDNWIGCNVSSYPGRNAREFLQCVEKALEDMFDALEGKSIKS
The experiment is described as follows: Determination of inhibition constant Ki for R-amino carnitine (DTNB enzyme activity assay). The conditions noted are these: 25 °C. Here is the method: (§1) Before activity measurements, the storage buffer of the enzymes was replaced with assay buffer (50 mM KH2PO4, 120 mM KCl, 1 mM EDTA-Na4) using vivaspin turbo 4 tubes (Satorius Stedim biotech GmbH, Göttingen, Germany) at 4 °C. The pH of assay buffer was adjusted with KOH to 7.4. The storage buffer was diluted at least 1:500 in assay buffer. In addition, before each experimental set up, the protein samples were centrifuged at 16,000× g for 5 min at 4 °C to remove any micro-aggregates. After that, the protein concentration was determined using bicinchoninic acid (BCA) protein assay kit (Thermo Fisher Scientific GmbH, Berlin, Germany). The enzyme activity of recombinant CPT II was performed following Rufer et al. with modifications described elsewhere. […] After pre-conditioning the mixture to 25 °C for 2 min, the reaction was started by adding 15 nM of recombinant enzyme. The reverse reaction of CPT II was detected with the enzyme activity assay. CPT II catalyzed the transfer of fatty acid residue from Pal-CoA to L-carnitine with release of CoA and Pal-carnitine. The released CoA was then detected by the reaction of the free thiol group with DTNB, forming 5-mercapto-(2-nitrobenzoic acid). This compound has a molar extinction coefficient of 13,600 M^−1 cm^−1 at a wavelength of 410 nm, and its formation was followed spectroscopically. […] The slope of the progress curve was used to determine the reaction velocity.
(§2) The inhibition constant Ki for the competitive inhibitor R-amino carnitine was determined using various concentrations (R-AC, 0, 0.25 and 0.5 mM). A concentration series of L-carnitine in the enzyme assay was used (0–200 mM) while the concentration of Pal-CoA remained constant at 30 µM. Experiments were performed at least three times independently as double determination.
(§3) The values for Ki were calculated on the basis of the obtained KM values, the Michaelis–Menten constant of the inhibited reaction KMi and the inhibitor concentration using the following equation [45]:(3) KMi=(1+[I]/ Ki)KM (4) Ki=KM·[I]/KMi−KM

For experiment [2], the target named is T2, CPT II variant S113L (Homo sapiens, UniProt P23786, S113L).
T2 construct: made in house; host or cells: Escherichia coli BL21Gold DE
T2 sequence (P23786 26-658 S113L): T1 sequence (P23786 26-658 P50H) with H25P, S88L
The description is as above. The note with it: 25 °C. Here is the method: as §1, §2, §3

The target in experiment [3] is T3, CPT II variant Y479F (Homo sapiens, UniProt P23786, Y479F).
T3 construct: made in house; host or cells: Escherichia coli BL21Gold DE
T3 sequence (P23786 26-658 Y479F): T1 sequence (P23786 26-658 P50H) with H25P, Y454F
The description is as above. The note with it: 25 °C. Here is the method:
as §1, §2, §3

The target in experiment [4] is T4, CPT II WT (Homo sapiens, UniProt P23786).
T4 construct: made in house; host or cells: Escherichia coli BL21Gold DE
T4 sequence (P23786 26-658): T1 sequence (P23786 26-658 P50H) with H25P
Described as above. The note with it: 25 °C. Here is the method: as §1, §2, §3

For experiment [5], the target named is T1, CPT II variant P50H. The experiment is described as follows: Determination of the kinetic parameters kcat and KM. The conditions noted are these: palmitoyl-CoA varied, 25 °C. As for the experimental part:
as §1
(§4) It is assumed that the reaction catalyzed by CPT II represents a ping-pong mechanism or compulsory order ternary-complex mechanism.
(§5) The kinetic parameters were determined by evaluating the obtained v/S characteristic according to the Michaelis–Menten Equation (1). The […] kcat was calculated using Equation (2):(1) v=Vmax∗[S]/KM+[S] (2) kcat=Vmax/cenzyme

For experiment [6], the target named is T2, CPT II variant S113L. The experiment is described as above. The note with it: palmitoyl-CoA varied, 25 °C. As for the experimental part: as §1, §4, §5
Experiment [7] deals with T3, CPT II variant Y479F. The experiment is described as above. The note with it: palmitoyl-CoA varied, 25 °C. Here is the method:
as §1, §4, §5

Experiment [8] deals with T4, CPT II WT. The description is as above. The note with it: palmitoyl-CoA varied, 25 °C. As for the experimental part:
as §1, §4, §5

Setting [9] is: 0.25 mM CL, read-out: Inhibition Constant Ki in Presence of CL.
[10] abbreviates: absence of CL, read-out: Inhibition Constant Ki in Absence of CL.

Each structure is given as a SMILES string. Where a chain is given by its changes, count along the chain named. Like-named read-outs stand apart in the source and are kept apart here.

With `C[N+](C)(C)C[C@H](N)CC(=O)[O-]` [R-amino carnitine, R-Aminocarnitine], the Ki at CPT II variant P50H [1] (setting [9]) is 46 ± 6 µM; at CPT II variant P50H [1] (setting [10]) it was 134 ± 11 µM; at CPT II variant S113L [2] (setting [9]), 36 ± 16 µM; on CPT II variant S113L [2] (setting [10]), 173 ± 20 µM; at CPT II variant Y479F [3] (setting [9]), 108 ± 39 µM; on CPT II variant Y479F [3] (setting [10]), 756 ± 62 µM. In addition, the inhibition constant Ki came out at 105 ± 2 µM at CPT II WT [4] (setting [9]) and 493 ± 4 µM on CPT II WT [4] (setting [10]).
As to `CCCCCCCCCCCCCCCC(=O)SCCNC(=O)CCNC(=O)[C@H](O)C(C)(C)COP(=O)(O)OP(=O)(O)OC[C@H]1O[C@@H](n2cnc3c(N)ncnc32)[C@H](O)[C@@H]1OP(=O)(O)O` [palmitoyl-CoA, Palmitoyl-Coenzyme A], the Km was 6.7 ± 1.8 µM on CPT II variant P50H [5] (0.25 mM CL); 5.5 ± 1.4 µM on CPT II variant P50H [5] (absence of CL); 12.3 ± 3 µM on CPT II variant S113L [6] (0.25 mM CL); 11 ± 3.6 µM at CPT II variant S113L [6] (absence of CL); 6.7 ± 0.3 µM at CPT II variant Y479F [7] (0.25 mM CL); 5.1 ± 2.3 µM at CPT II variant Y479F [7] (absence of CL). Further, the Michaelis constant (Km) on CPT II WT [8] (0.25 mM CL) is 6.7 ± 1.1 µM; at CPT II WT [8] (absence of CL), 7.1 ± 1.1 µM. The kcat turned out to be 138.2 ± 8.4 s⁻¹ on CPT II variant P50H [5] (0.25 mM CL); 144.3 ± 18 s⁻¹ at CPT II variant P50H [5] (absence of CL); 145.8 ± 0.9 s⁻¹ at CPT II variant S113L [6] (0.25 mM CL); 142.1 ± 25 s⁻¹ on CPT II variant S113L [6] (absence of CL); 144.8 ± 13 s⁻¹ on CPT II variant Y479F [7] (0.25 mM CL); 141.4 ± 1.7 s⁻¹ on CPT II variant Y479F [7] (absence of CL). Also, the results for the kcat at CPT II WT [8] (0.25 mM CL) and on CPT II WT [8] (absence of CL) were 145.3 ± 9.0 s⁻¹ and 144.7 ± 3.1 s⁻¹, respectively.
